± gives the expanded uncertainty stated by the source.
Experiment: mn = molality of the nth substance listed, in mol/kg
Conditions: 350 kPa, Liquid, Extra sensitive DSC

C1COCCOCCOCCOCCOCCO1 [1,4,7,10,13,16-hexaoxacyclooctadecane] + O
Conditions | apparent molar heat capacity [J/K/mol]
278.15 K, m1 = 0.01001 | 748 ± 17
278.15 K, m1 = 0.02001 | 740.4 ± 8.5
278.15 K, m1 = 0.03002 | 741.5 ± 5.7
278.15 K, m1 = 0.0401 | 742.3 ± 4.4
278.15 K, m1 = 0.04995 | 746.2 ± 3.5
278.15 K, m1 = 0.06015 | 746.9 ± 2.9
278.15 K, m1 = 0.08002 | 744.3 ± 2.2
278.15 K, m1 = 0.1224 | 740.8 ± 1.5
278.15 K, m1 = 0.1472 | 738.5 ± 1.2
278.15 K, m1 = 0.1935 | 734.51 ± 0.98
278.15 K, m1 = 0.2925 | 725.83 ± 0.69
283.15 K, m1 = 0.01001 | 768 ± 12
283.15 K, m1 = 0.02001 | 764.2 ± 6.1
283.15 K, m1 = 0.03002 | 764.8 ± 4.1
283.15 K, m1 = 0.0401 | 765.6 ± 3.1
283.15 K, m1 = 0.04995 | 769.1 ± 2.5
283.15 K, m1 = 0.06015 | 769.3 ± 2.1
283.15 K, m1 = 0.08002 | 767.2 ± 1.6
283.15 K, m1 = 0.1224 | 764.3 ± 1.1
283.15 K, m1 = 0.1472 | 762.46 ± 0.93
283.15 K, m1 = 0.1935 | 759.11 ± 0.76
283.15 K, m1 = 0.2925 | 751.64 ± 0.55
288.15 K, m1 = 0.01001 | 788 ± 11
288.15 K, m1 = 0.02001 | 782.4 ± 5.3
288.15 K, m1 = 0.03002 | 783.2 ± 3.5
288.15 K, m1 = 0.0401 | 785.4 ± 2.7
288.15 K, m1 = 0.04995 | 788.8 ± 2.2
288.15 K, m1 = 0.06015 | 788.7 ± 1.8
288.15 K, m1 = 0.08002 | 786.6 ± 1.4
288.15 K, m1 = 0.1224 | 784.29 ± 0.93
288.15 K, m1 = 0.1472 | 782.67 ± 0.83
288.15 K, m1 = 0.1935 | 779.7 ± 0.67
288.15 K, m1 = 0.2925 | 773.51 ± 0.48
293.15 K, m1 = 0.01001 | 805.9 ± 9.8
293.15 K, m1 = 0.02001 | 800.2 ± 4.8
293.15 K, m1 = 0.03002 | 800.8 ± 3.2
293.15 K, m1 = 0.0401 | 803.3 ± 2.5
293.15 K, m1 = 0.04995 | 806.1 ± 2
293.15 K, m1 = 0.06015 | 806 ± 1.7
293.15 K, m1 = 0.08002 | 804.3 ± 1.3
293.15 K, m1 = 0.1224 | 802.22 ± 0.86
293.15 K, m1 = 0.1472 | 800.93 ± 0.76
293.15 K, m1 = 0.1935 | 798.36 ± 0.61
293.15 K, m1 = 0.2925 | 793.29 ± 0.44
298.15 K, m1 = 0.01001 | 820.2 ± 9.5
298.15 K, m1 = 0.02001 | 817 ± 4.6
298.15 K, m1 = 0.03002 | 817.3 ± 3.1
298.15 K, m1 = 0.0401 | 820 ± 2.4
298.15 K, m1 = 0.04995 | 822.2 ± 1.9
298.15 K, m1 = 0.06015 | 822.4 ± 1.6
298.15 K, m1 = 0.08002 | 820.7 ± 1.2
298.15 K, m1 = 0.1224 | 819.28 ± 0.83
298.15 K, m1 = 0.1472 | 818.39 ± 0.77
298.15 K, m1 = 0.1935 | 816.04 ± 0.56
298.15 K, m1 = 0.2925 | 811.91 ± 0.4
303.15 K, m1 = 0.01001 | 836.9 ± 9.2
303.15 K, m1 = 0.02001 | 832.9 ± 4.4
303.15 K, m1 = 0.03002 | 833.1 ± 3
303.15 K, m1 = 0.0401 | 836.5 ± 2.3
303.15 K, m1 = 0.04995 | 838.6 ± 1.9
303.15 K, m1 = 0.06015 | 838.4 ± 1.5
303.15 K, m1 = 0.08002 | 836.6 ± 1.1
303.15 K, m1 = 0.1224 | 835.6 ± 0.8
303.15 K, m1 = 0.1472 | 835.12 ± 0.75
303.15 K, m1 = 0.1935 | 832.91 ± 0.55
303.15 K, m1 = 0.2925 | 829.51 ± 0.39
308.15 K, m1 = 0.01001 | 852.1 ± 9.3
308.15 K, m1 = 0.02001 | 847.8 ± 4.3
308.15 K, m1 = 0.03002 | 848.2 ± 2.9
308.15 K, m1 = 0.0401 | 852.3 ± 2.3
308.15 K, m1 = 0.04995 | 853.8 ± 1.9
308.15 K, m1 = 0.06015 | 853.6 ± 1.5
308.15 K, m1 = 0.08002 | 852.2 ± 1.1
308.15 K, m1 = 0.1224 | 851.14 ± 0.77
308.15 K, m1 = 0.1472 | 850.86 ± 0.75
308.15 K, m1 = 0.1935 | 849 ± 0.61
308.15 K, m1 = 0.2925 | 846.24 ± 0.43
313.15 K, m1 = 0.01001 | 866.4 ± 9
313.15 K, m1 = 0.02001 | 862 ± 4.3
313.15 K, m1 = 0.03002 | 862.5 ± 2.9
313.15 K, m1 = 0.0401 | 867.6 ± 2.3
313.15 K, m1 = 0.04995 | 868.8 ± 1.8
313.15 K, m1 = 0.06015 | 868.4 ± 1.5
313.15 K, m1 = 0.08002 | 867.4 ± 1.2
313.15 K, m1 = 0.1224 | 866.13 ± 0.76
313.15 K, m1 = 0.1472 | 866.03 ± 0.71
313.15 K, m1 = 0.1935 | 864.46 ± 0.66
313.15 K, m1 = 0.2925 | 862.08 ± 0.46
318.15 K, m1 = 0.01001 | 881.2 ± 9.1
318.15 K, m1 = 0.02001 | 875.7 ± 4.2
318.15 K, m1 = 0.03002 | 875.9 ± 2.8
318.15 K, m1 = 0.0401 | 881.8 ± 2.3
318.15 K, m1 = 0.04995 | 882.5 ± 1.8
318.15 K, m1 = 0.06015 | 882.3 ± 1.6
318.15 K, m1 = 0.08002 | 881.7 ± 1.2
318.15 K, m1 = 0.1224 | 880.23 ± 0.79
318.15 K, m1 = 0.1472 | 880.31 ± 0.7
318.15 K, m1 = 0.1935 | 878.85 ± 0.65
318.15 K, m1 = 0.2925 | 876.99 ± 0.45
323.15 K, m1 = 0.01001 | 893 ± 8.8
323.15 K, m1 = 0.02001 | 888.8 ± 4.2
323.15 K, m1 = 0.03002 | 888.4 ± 2.8
323.15 K, m1 = 0.0401 | 894.9 ± 2.2
323.15 K, m1 = 0.04995 | 895.6 ± 1.8
323.15 K, m1 = 0.06015 | 895.5 ± 1.5
323.15 K, m1 = 0.08002 | 894.7 ± 1.2
323.15 K, m1 = 0.1224 | 893.76 ± 0.74
323.15 K, m1 = 0.1472 | 893.83 ± 0.69
323.15 K, m1 = 0.1935 | 892.3 ± 0.64
323.15 K, m1 = 0.2925 | 890.8 ± 0.44
328.15 K, m1 = 0.01001 | 904.7 ± 8.3
328.15 K, m1 = 0.02001 | 900.1 ± 4.1
328.15 K, m1 = 0.03002 | 900.3 ± 2.8
328.15 K, m1 = 0.0401 | 907.2 ± 2.1
328.15 K, m1 = 0.04995 | 907.7 ± 1.7
328.15 K, m1 = 0.06015 | 907.3 ± 1.5
328.15 K, m1 = 0.08002 | 906.8 ± 1.1
328.15 K, m1 = 0.1224 | 905.99 ± 0.73
328.15 K, m1 = 0.1472 | 906.11 ± 0.7
328.15 K, m1 = 0.1935 | 904.68 ± 0.61
328.15 K, m1 = 0.2925 | 903.37 ± 0.42
333.15 K, m1 = 0.01001 | 915.3 ± 8.1
333.15 K, m1 = 0.02001 | 910.7 ± 4.1
333.15 K, m1 = 0.03002 | 911 ± 2.8
333.15 K, m1 = 0.0401 | 918.1 ± 2
333.15 K, m1 = 0.04995 | 918.5 ± 1.7
333.15 K, m1 = 0.06015 | 918 ± 1.5
333.15 K, m1 = 0.08002 | 917.5 ± 1.1
333.15 K, m1 = 0.1224 | 916.74 ± 0.72
333.15 K, m1 = 0.1472 | 917.09 ± 0.69
333.15 K, m1 = 0.1935 | 915.79 ± 0.6
333.15 K, m1 = 0.2925 | 914.65 ± 0.41
